Measured values taken from patent publication US9629861B2, “Compositions and methods for treating bacterial infections using ceftaroline” (Forest Laboratories Holdings Limited, priority 2009, dated 2017).
Read-outs that look alike come from different tables or passages of the source.

Experiments:
E. coli = assay: Example 5 CAP study, outcome by baseline pathogen; type: in vivo, Escherichia coli
Text: (§1) Per-pathogen clinical cure rate and favorable microbiological outcome rate at TOC in the mMITTE and ME Populations;

MDRSP = assay: Example 4 CAP study, outcome by baseline pathogen; type: in vivo, Streptococcus pneumoniae
Text: as §1

S. pneumoniae = assay: Example 4 CAP study, outcome by baseline pathogen; type: in vivo, Streptococcus pneumoniae
Text: as §1

CYP1A2 [1] = conditions: human hepatocytes
CYP2C19 [2] = conditions: human hepatocytes
[3] = test system: Community-Acquired Bacterial Pneumonia (CABP); assay: Two Phase 3 studies in CABP, integrated; type: in vivo, human; conditions: for Clinical Cure Rate at TOC / Treatment Difference in clinical cure rate at TOC: integrated CABP studies; for Clinical Cure Rate at TOC: after 5 to 7 days of therapy; for Treatment Difference in clinical cure rate at TOC / Weighted treatment difference (95% CI): versus ceftriaxone; for Weighted treatment difference (95% CI): combined CABP studies
Experimental: (§2) In both treatment groups of CABP Study 1, two doses of oral clarithromycin (500 mg q12h), were administered as adjunctive therapy starting on Study Day 1. No adjunctive macrolide therapy was used in CABP Study 2. Patients with new or progressive pulmonary infiltrate(s) on chest radiography and clinical signs and symptoms consistent with CABP with the need for hospitalization and IV therapy were enrolled in the studies. Treatment duration was 5 to 7 days. A switch to oral therapy was not allowed. The Modified Intent-to-Treat Efficacy (MITTE) population included all patients who received any amount of study drug according to their randomized treatment group and were in PORT (Pneumonia Outcomes Research Team) Risk Class III or IV.
The primary efficacy endpoint was the clinical response at the Test of Cure (TOC) visit in the co-primary CE and MITTE populations (Table 4). In a subgroup analysis (CE population), the comparative clinical cure rates between the ceftaroline group and the ceftriaxone group were not affected by age, gender, race, ethnicity, or weight.

CYP2C19 [4] = target: T1, CYP2C19 (Homo sapiens, UniProt P33261); assay: CYP inhibition in human liver microsomes; type: in vitro ADME
T1 construct: In vitro studies in human liver microsomes; from tissue; host or cells: human liver microsomes
T1 sequence (P33261 whole entry): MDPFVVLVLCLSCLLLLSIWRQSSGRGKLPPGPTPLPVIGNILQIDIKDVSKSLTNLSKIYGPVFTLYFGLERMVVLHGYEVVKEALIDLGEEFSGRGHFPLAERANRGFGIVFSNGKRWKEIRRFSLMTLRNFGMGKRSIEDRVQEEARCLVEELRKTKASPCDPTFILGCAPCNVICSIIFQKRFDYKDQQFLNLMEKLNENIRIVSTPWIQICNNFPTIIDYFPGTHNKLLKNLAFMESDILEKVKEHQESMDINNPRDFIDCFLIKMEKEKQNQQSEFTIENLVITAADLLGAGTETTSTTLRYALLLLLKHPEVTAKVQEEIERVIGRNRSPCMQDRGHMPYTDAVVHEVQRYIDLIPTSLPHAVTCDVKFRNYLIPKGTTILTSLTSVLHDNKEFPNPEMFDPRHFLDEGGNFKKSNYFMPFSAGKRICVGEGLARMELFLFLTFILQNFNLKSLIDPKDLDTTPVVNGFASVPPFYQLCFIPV

H. influenzae = assay: Example 4 CAP study, outcome by baseline pathogen; type: in vivo, Haemophilus influenzae
Text: as §1

CYP2C8 = conditions: human hepatocytes
[5] = Example 5
Experimental: The 600-mg dose of ceftaroline fosamil infused over 60 minutes was split into two infusions in order to maintain the blind. For subjects with moderate renal impairment (30 mL/min<CrCl≦50 mL/min), as estimated by the Cockroft-Gault formula, unblinded pharmacy staff or unblinded study staff could adjust the dose of ceftaroline fosamil to two consecutive 200 mg infusions and readjust dose to two 300 mg infusions when renal function improved (CrCl>50 mL/min). The duration of treatment was between 5 to 7 days.
All subjects who received any amount of study drug were included in the safety analysis. Safety measures included monitoring for adverse events (AE) up to TOC and serious adverse events (SAE) through LFU; recording vital signs, physical examination, electrocardiogram (ECG), and clinical laboratory findings (clinical chemistry, hematology, and urinalysis), at prespecified times throughout the study.

[6] = Pharmacokinetics in adolescent patients; type: in vivo, human; conditions: adolescents 12 to 17; 8 mg/kg ceftaroline fosamil (or 600 mg if >75 kg)
Experimental: The pharmacokinetics of ceftaroline were evaluated in adolescent patients (ages 12 to 17) with normal renal function.

CYP2D6 = target: T2, CYP2D6 (Homo sapiens, UniProt P10635); assay: CYP inhibition in human liver microsomes; type: in vitro ADME
T2 construct: In vitro studies in human liver microsomes; from tissue; host or cells: human liver microsomes
T2 sequence (P10635 whole entry): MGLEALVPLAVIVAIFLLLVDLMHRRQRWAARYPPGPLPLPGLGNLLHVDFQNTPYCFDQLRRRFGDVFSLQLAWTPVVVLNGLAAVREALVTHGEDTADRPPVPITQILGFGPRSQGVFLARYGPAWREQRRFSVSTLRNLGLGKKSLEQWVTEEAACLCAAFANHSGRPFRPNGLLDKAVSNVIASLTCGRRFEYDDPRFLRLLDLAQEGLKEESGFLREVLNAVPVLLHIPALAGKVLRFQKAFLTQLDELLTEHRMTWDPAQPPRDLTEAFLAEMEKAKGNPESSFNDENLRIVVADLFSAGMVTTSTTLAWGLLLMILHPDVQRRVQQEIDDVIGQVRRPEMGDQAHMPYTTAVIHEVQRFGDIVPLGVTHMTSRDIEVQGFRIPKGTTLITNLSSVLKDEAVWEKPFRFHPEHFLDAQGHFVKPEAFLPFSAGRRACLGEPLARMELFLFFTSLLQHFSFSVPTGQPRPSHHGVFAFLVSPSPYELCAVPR

H. parainfluenzae = assay: Example 4 CAP study, outcome by baseline pathogen; type: in vivo
Text: as §1

CYP3A4 = target: T3, CYP3A4 (Homo sapiens, UniProt P08684); assay: CYP inhibition in human liver microsomes; type: in vitro ADME
T3 construct: In vitro studies in human liver microsomes; from tissue; host or cells: human liver microsomes
T3 sequence (P08684 whole entry): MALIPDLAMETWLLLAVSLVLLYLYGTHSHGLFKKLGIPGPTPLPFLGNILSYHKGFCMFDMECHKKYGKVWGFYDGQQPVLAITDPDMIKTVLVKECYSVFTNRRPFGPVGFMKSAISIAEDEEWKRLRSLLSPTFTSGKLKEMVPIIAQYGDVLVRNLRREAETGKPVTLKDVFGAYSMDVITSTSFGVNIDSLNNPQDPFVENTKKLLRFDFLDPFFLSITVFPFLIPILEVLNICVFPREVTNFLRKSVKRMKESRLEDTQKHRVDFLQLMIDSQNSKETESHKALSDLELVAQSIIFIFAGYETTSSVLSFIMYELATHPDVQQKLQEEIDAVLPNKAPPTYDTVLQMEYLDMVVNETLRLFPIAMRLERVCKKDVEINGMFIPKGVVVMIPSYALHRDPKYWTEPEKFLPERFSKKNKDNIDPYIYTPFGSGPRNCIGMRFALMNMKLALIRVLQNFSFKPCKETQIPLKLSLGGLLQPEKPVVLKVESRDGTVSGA

[7] = test system: Community-Acquired Bacterial Pneumonia (CABP); assay: Phase 3 CABP Study 1 (Example 5, adjunctive clarithromycin); type: in vivo, human; conditions: for Clinical Cure Rate at TOC / Treatment Difference in clinical cure rate at TOC: CABP Study 1; for Difference, clinical cure rate at EOT / Difference, favorable microbiological outcome at TOC: ceftaroline minus ceftriaxone, Example 5; for Treatment Difference in clinical cure rate at TOC: versus ceftriaxone
Experimental: as §2
The primary efficacy endpoint was the clinical response at the Test of Cure (TOC) visit in the co-primary CE and MITTE populations (Table 4).
The secondary objective of the study was to evaluate the following: the clinical response at end-of-therapy (EOT); the microbiological favorable outcome rate at TOC; the overall (clinical and radiographic) success rate at TOC; the clinical and microbiological response by pathogen at TOC; clinical relapse at late follow-up (LFU); microbiological reinfection/recurrence at LFU; and safety.
The primary efficacy outcome measures were the per-subject clinical cure rate at TOC in the CE and MITTE Populations. Subjects were considered clinically cured at TOC if they had total resolution of all signs and symptoms of the baseline infection, or improvement of the infection such that no further antimicrobial therapy was necessary.
Non-inferiority was concluded if the lower limit of the 95% CI was higher than −10%.

CYP1A2 [8] = target: CYP1A2 (Homo sapiens, UniProt P05177); type: in vitro ADME; conditions: human liver microsomes
Sequence of CYP1A2 (Homo sapiens, UniProt P05177) (P05177 whole entry): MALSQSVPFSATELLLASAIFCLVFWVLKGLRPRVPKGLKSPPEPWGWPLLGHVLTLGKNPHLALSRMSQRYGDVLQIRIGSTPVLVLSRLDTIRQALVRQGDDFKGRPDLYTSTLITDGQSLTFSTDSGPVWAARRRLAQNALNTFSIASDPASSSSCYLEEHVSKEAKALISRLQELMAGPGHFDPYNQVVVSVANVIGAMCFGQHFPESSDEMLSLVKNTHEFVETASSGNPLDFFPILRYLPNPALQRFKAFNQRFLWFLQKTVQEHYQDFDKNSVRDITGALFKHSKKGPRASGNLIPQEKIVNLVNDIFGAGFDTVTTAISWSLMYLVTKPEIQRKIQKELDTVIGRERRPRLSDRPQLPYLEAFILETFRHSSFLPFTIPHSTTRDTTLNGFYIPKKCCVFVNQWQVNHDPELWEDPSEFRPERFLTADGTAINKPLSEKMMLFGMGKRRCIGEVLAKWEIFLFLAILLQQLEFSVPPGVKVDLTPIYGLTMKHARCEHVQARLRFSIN

K. pneumoniae = assay: Example 4 CAP study, outcome by baseline pathogen; type: in vivo, Klebsiella pneumoniae
Text: as §1

S. aureus = assay: Example 5 CAP study, outcome by baseline pathogen; type: in vivo, Staphylococcus aureus
Text: as §1

CYP2E1 = target: T4, CYP2E1 (Homo sapiens, UniProt P05181); assay: CYP inhibition in human liver microsomes; type: in vitro ADME
T4 construct: In vitro studies in human liver microsomes; from tissue; host or cells: human liver microsomes
T4 sequence (P05181 whole entry): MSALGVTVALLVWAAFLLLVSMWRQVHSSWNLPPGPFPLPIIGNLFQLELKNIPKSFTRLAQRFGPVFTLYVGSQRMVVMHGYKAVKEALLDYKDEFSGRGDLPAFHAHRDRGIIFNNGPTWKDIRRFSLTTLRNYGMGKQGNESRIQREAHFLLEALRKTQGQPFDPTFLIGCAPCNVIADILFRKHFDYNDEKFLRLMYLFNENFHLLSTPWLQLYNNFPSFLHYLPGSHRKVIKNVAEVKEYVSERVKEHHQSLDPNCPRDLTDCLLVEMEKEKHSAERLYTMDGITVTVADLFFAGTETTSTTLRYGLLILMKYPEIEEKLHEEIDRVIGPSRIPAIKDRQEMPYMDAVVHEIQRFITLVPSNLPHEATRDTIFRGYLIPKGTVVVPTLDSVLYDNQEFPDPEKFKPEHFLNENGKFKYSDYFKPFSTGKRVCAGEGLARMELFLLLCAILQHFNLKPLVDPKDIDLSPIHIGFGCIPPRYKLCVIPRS

CYP1A1 = target: T5, CYP1A1 (Homo sapiens, UniProt P04798); assay: CYP inhibition in human liver microsomes; type: in vitro ADME
T5 construct: In vitro studies in human liver microsomes; from tissue; host or cells: human liver microsomes
T5 sequence (P04798 whole entry): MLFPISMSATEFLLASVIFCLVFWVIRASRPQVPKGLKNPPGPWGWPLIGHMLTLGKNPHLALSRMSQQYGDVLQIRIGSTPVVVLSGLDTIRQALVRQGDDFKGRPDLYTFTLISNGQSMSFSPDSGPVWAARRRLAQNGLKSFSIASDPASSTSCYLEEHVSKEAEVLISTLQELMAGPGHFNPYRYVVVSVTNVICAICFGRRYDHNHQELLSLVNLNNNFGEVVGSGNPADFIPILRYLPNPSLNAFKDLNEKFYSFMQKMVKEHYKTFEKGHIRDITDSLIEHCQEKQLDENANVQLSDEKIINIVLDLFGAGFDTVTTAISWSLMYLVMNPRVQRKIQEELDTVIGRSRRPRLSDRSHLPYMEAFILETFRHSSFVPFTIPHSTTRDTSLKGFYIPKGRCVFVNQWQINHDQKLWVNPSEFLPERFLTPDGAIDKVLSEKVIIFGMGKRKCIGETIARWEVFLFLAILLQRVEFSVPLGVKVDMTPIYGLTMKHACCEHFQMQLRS

[9] = Safety population, listed as ceftaroline

Compound: CCO/N=C(\C(=O)N[C@@H]1C(=O)N2C(C(=O)[O-])=C(Sc3nc(-c4cc[n+](C)cc4)cs3)CS[C@H]12)c1nsc(N)n1 [Ceftaroline]
- Favorable Microbiological Outcome at TOC by Baseline Pathogen (E. coli; ME): 8/8 (100.0) %
- Clinical Cure Rate at the TOC Visit by Baseline Pathogen (E. coli; ME population): 8/8 (100.0) %
- Favorable Microbiological Outcome at TOC by Baseline Pathogen (MDRSP; ME): 2/2 (100.0) %
- Clinical Cure Rate at the TOC Visit by Baseline Pathogen (MDRSP; ME population): 2/2 (100.0) %
- Favorable Microbiological Outcome at TOC by Baseline Pathogen (S. pneumoniae; ME): 35/39 (89.7) %
- Clinical Cure Rate at the TOC Visit by Baseline Pathogen (S. pneumoniae; ME population): 33/39 (84.6) %
- induction of CYP1A2 (CYP1A2 [1]): not inducers
- induction of CYP2C19 (CYP2C19 [2]): not inducers
- Clinical Cure Rate at TOC ([3]; CE population): 387/459 (84.3) %
- Clinical Cure Rate at TOC ([3]; MITTE population): 479/580 (82.6) %
- Treatment Difference in clinical cure rate at TOC ([3]; CE): 6.7 (1.6, 11.8) %
- Treatment Difference in clinical cure rate at TOC ([3]; CE, listed as ceftaroline): 6.7%
- Weighted treatment difference (95% CI) ([3]; ME): 9.7 (0.7, 18.8) %
- Weighted treatment difference (95% CI) ([3]; ME, listed as ceftaroline): 9.7%
- Treatment Difference in clinical cure rate at TOC ([3]; MITTE): 6.0 (1.4, 10.7) %
- Weighted treatment difference (95% CI) ([3]; mMITTE): 8.7 (−0.0, 17.4) %
- Weighted treatment difference (95% CI) ([3]; mMITTE, listed as ceftaroline): 8.7%
- inhibition of CYP2C19 (CYP2C19 [4]): neither ceftaroline fosamil nor ceftaroline inhibits
- Favorable Microbiological Outcome at TOC by Baseline Pathogen (H. influenzae; ME): 13/15 (86.7) %
- Clinical Cure Rate at the TOC Visit by Baseline Pathogen (H. influenzae; ME population): 13/15 (86.7) %
- induction of CYP2C8 (CYP2C8): not inducers
- TEAEs leading to premature discontinuation from study drug administration [5]: 3.7%
- subjects with SAEs considered possibly or probably related to study drug [5]: 2 subjects
- Early withdrawal from study, reason Adverse Event ([5]; MITTE population): 5 (1.7) %
- Any AE (TEAE), subjects ([5]; Safety population): 119 (39.9) %
- Constipation, subjects ([5]; Safety population): 7 (2.3) %
- Diarrhea, subjects ([5]; Safety population): 14 (4.7) %
- Headache, subjects ([5]; Safety population): 10 (3.4) %
- Hypertension, subjects ([5]; Safety population): 6 (2.0) %
- Hypokalemia, subjects ([5]; Safety population): 4 (1.3) %
- Insomnia, subjects ([5]; Safety population): 9 (3.0) %
- Nausea, subjects ([5]; Safety population): 8 ( 2.7) %
- Phlebitis, subjects ([5]; Safety population): 7 (2.3) %
- Any AE (TEAE), subjects [5, 9]: 39.9%
- Diarrhea, subjects [5, 9]: 4.7%
- Headache, subjects [5, 9]: 3.4%
- mean AUC less than in adult subjects after 600 mg [6]: ~23%
- mean Cmax less than in adult subjects after 600 mg [6]: about 10%
- inhibition of CYP2D6 (CYP2D6): neither ceftaroline fosamil nor ceftaroline inhibits
- Favorable Microbiological Outcome at TOC by Baseline Pathogen (H. parainfluenzae; ME): 9/9 (100.0) %
- Clinical Cure Rate at the TOC Visit by Baseline Pathogen (H. parainfluenzae; ME population): 9/9 (100.0) %
- inhibition of CYP3A4 (CYP3A4): neither ceftaroline fosamil nor ceftaroline inhibits
- Clinical Cure Rate at TOC ([7]; CE population): 194 (86.6) %
- Clinical Cure Rate at TOC ([7]; MITTE population): 244 (83.8) %
- Difference, clinical cure rate at EOT ([7]; CE): 7.6%
- Difference, favorable microbiological outcome at TOC ([7]; ME): 11.0%
- Difference, clinical cure rate at EOT ([7]; MITTE): 6.3%
- Difference, favorable microbiological outcome at TOC ([7]; mMITTE): 9.3%
- Treatment Difference in clinical cure rate at TOC ([7]; CE): 8.4%
- Treatment Difference in clinical cure rate at TOC ([7]; MITTE): 6.2%
- inhibition of CYP1A2 (CYP1A2 [8]): neither ceftaroline fosamil nor ceftaroline inhibits
- Favorable Microbiological Outcome at TOC by Baseline Pathogen (K. pneumoniae; ME): 6/6 (100.0) %
- Clinical Cure Rate at the TOC Visit by Baseline Pathogen (K. pneumoniae; ME population): 6/6 (100.0) %
- Favorable Microbiological Outcome at TOC by Baseline Pathogen (S. aureus; ME): 8/10 (80.0) %
- Clinical Cure Rate at the TOC Visit by Baseline Pathogen (S. aureus; ME population): 8/10 (80.0) %
- inhibition of CYP2E1 (CYP2E1): neither ceftaroline fosamil nor ceftaroline inhibits
- inhibition of CYP1A1 (CYP1A1): neither ceftaroline fosamil nor ceftaroline inhibits
